In patent publication US6642222B2, “Pyrano, piperidino, and thiopyrano compounds and methods of use” (Abbott Laboratories, priority 1998, dated 2003):
Where a name gives a salt, the structure may show the parent alone.

What was measured:
Landrace Pig Bladder = test: Functional potassium channel opening activity in isolated bladder strips (field-stimulated twitch); details: for Index: ED50 for P1075 divided by ED50 for the test agonist, averaged over tissues; for Emax / EC50: Sus scrofa; for EC50: read-out: pD2 (converted)
Procedure: Compounds were evaluated for functional potassium channel opening activity using tissue strips obtained from Landrace pig bladders. Landrace pig bladders were obtained from female Landrace pigs of 9-30 kg. Landrace pigs were euthanized with an intraperitoneal injection of pentobarbital solution, Somlethal®, J. A. Webster Inc. Sterling Mass. The entire bladder was removed and immediately placed into Krebs Ringer bicarbonate solution (composition, mM: NaCl, 120; […] Dextrose, 4.7; […] Propranolol (0.004 mM) was included in all of the assays to block β-adrenoceptors. The trigonal and dome portions were […], Strips 3-5 […] (mm) wide and 20 mm long were prepared from the remaining tissue cut in a circular fashion. The mucosal layer was removed. One end was fixed to a stationary glass rod and the other to a Grass FT03 transducer at a basal preload of 1.0 g. Two parallel platinum electrodes were included in the stationary glass trod to provide field stimulation of 0.05 Hz, 0.5 milli-seconds at 20 volts. […] Tissues were allowed to equilibrate for at least 60 minutes and primed with 80 mM KCl. A control concentration response curve (cumulative) was generated for each tissue using the potassium channel opener […] as the control agonist. […] After a 60 minute rinsing period, a concentration response curve (cumulative) was generated for the test agonist in the same fashion as that used for the control agonist […]. The maximal efficacy of each compounds (expressed as % relative to […]) is reported. The amount of agent necessary to cause 50% of the agent's maximal response (ED50) was calculated using “ALLFIT” (DeLean et al., Am. J. […] Agonist potencies were also expressed as an index relative to […]. The index was calculated by dividing the ED50 for […] by the ED50 for the test agonist in a given tissue. Each tissue was used for only one test agonist, and the indices obtained from each tissue were averaged to provide an average index of potency.

[1] = test system: Guinea-Pig Bladder (GPB) Cells; test: Membrane Hyperpolarization (MHP) assay, DiBAC(4)3 / FLIPR; details: for EC50: membrane hyperpolarization, GPB cells; for Emax: read-out: Maximal Response (% P1075), maximal steady-state hyperpolarization, normalized to 10 μM P1075 (100%); for Maximal Response (% P1075): maximal steady-state hyperpolarization, normalized to 10 μM P1075 (100%)
[2] = maximal efficacy relative to P1075, field stimulated bladder strips

EC50 ([1]; Cavia porcellus) [nM] | SMILES | Emax ([1]; Cavia porcellus) [%] | EC50 [1] [nM] | also measured
26 | O=C1COCC2=C1[C@@H](c1ccc(F)c(Br)c1)C1=C(COC1=O)N2 (single isomer, unassigned) [Example 42] | 102 |  | Index (Landrace Pig Bladder): 0.17; Emax (Landrace Pig Bladder; [2]): 95%; EC50 (Landrace Pig Bladder; negative logarithm of ED50): 631 nM
11 | O=C1COCC2=C1[C@H](c1ccc(F)c(Br)c1)C1=C(COC1=O)N2 (single isomer, unassigned) [Example 43] | 98 |  | Index (Landrace Pig Bladder): 0.68; Emax (Landrace Pig Bladder; [2]): 88%; EC50 (Landrace Pig Bladder; negative logarithm of ED50): 200 nM
4.9 | O=C1COCC2=C1[C@H](c1ccc(F)c(I)c1)C1=C(COC1=O)N2 (single isomer, unassigned) [Example 78] | 97 |  | Index (Landrace Pig Bladder): 0.79; Emax (Landrace Pig Bladder; [2]): 96%; EC50 (Landrace Pig Bladder; negative logarithm of ED50): 79.4 nM
14 | O=C1COCC2=C1[C@@H](c1ccc(F)c(I)c1)C1=C(COC1=O)N2 (single isomer, unassigned) [Example 79] | 90 |  | Index (Landrace Pig Bladder): 0.40; Emax (Landrace Pig Bladder; [2]): 95%; EC50 (Landrace Pig Bladder; negative logarithm of ED50): 158 nM
 | Cc1ccc([C@H]2C3=C(COCC3=O)NC3=C2C(=O)OC3)cc1Br (single isomer, unassigned) [Example 81] |  |  | Index (Landrace Pig Bladder): 0.23; Emax (Landrace Pig Bladder; [2]): 93%; EC50 (Landrace Pig Bladder; negative logarithm of ED50): 398 nM
 | Cc1ccc(C2C3=C(COCC3=O)NC3=C2C(=O)OC3)cc1I (single isomer, unassigned) [Example 82, 9-(3-iodo-4-methylphenyl)-5,9-dihydro-3H-furo [3,4-b]pyrano[4,3-e]pyridine-1,8(4H,7H)-dione] |  |  | Index (Landrace Pig Bladder): 1.4; Emax (Landrace Pig Bladder; [2]): 98%; EC50 (Landrace Pig Bladder; negative logarithm of ED50): 31.6 nM
1000 | Cl.O=C1CCC2=C1C(c1ccc(F)c(Br)c1)C1=C(CNCC1=O)N2 (single isomer, unassigned; (+)) [Example 6, (+)-5-(3-bromo-4-fluorophenyl)-2,3,5,7,8,9-hexahydro-1H-cyclopenta[b][1,7]naphthyridine-4,6-dione Hydrochloride] | 83 |  | Index (Landrace Pig Bladder; Hydrochloride): 0.022; Emax (Landrace Pig Bladder; [2]): 100%; EC50 (Landrace Pig Bladder; negative logarithm of ED50): 3980 nM
 | Cl.O=C1CCCC2=C1C(c1ccc(F)c(Br)c1)C1=C(CNCC1=O)N2 (single isomer, unassigned; (+)) [Example 8, (+)-5-(3-bromo-4-fluorophenyl)-2,3,5,8,9,10-hexahydrobenzo[b][1,7]naphthyridine-4,6(1H, 7H)-dione Hydrochloride] |  |  | Index (Landrace Pig Bladder; Hydrochloride): 0.023; Efficacy (% P1075) (Landrace Pig Bladder; maximal efficacy relative to P1075, field stimulated bladder strips, Hydrochloride): 90 % P1075; pD2 (Landrace Pig Bladder; negative logarithm of ED50, Hydrochloride): 5.2; Maximal Response (% P1075) ([1]; Hydrochloride): 33 % P1075; EC50 ([1]; Hydrochloride): 5000 nM
 | N#Cc1cccc(C2C3=C(COCC3=O)NC3=C2S(=O)(=O)CC3)c1 (single isomer, unassigned; (-)) [Example 16, (−) 9-(3-cyanophenyl)-2,3,5,9-tetrahydro-4H-pyrano [3,4-b]thieno[2,3-e]pyridin-8(7H)-one 1,1-dioxide] |  | 8800 | Maximal Response (% P1075) [1]: 57 % P1075
 | O=C1CNCC2=C1C(c1ccc(F)c(Br)c1)C1=C(CNCC1=O)N2 [Example 4, 5-(3-bromo-4-fluorophenyl)-2,3,5,8,9,10-hexahydropyrido [3,4-b][1,7]naphthyridine-4,6(1H,7H)-dione Dihydrochloride] | 21 |  | 
 | N#Cc1cccc(C2C3=C(COCC3=O)NC3=C2S(=O)(=O)CC3)c1 (stereo not shown) [Example 14, 9-(3-cyanophenyl)-2,3,5,9-tetrahydro-4H-pyrano[3,4-b]thieno[2,3-e]pyridin-8(7H)-one 1,1-dioxide] |  | 400 | Maximal Response (% P1075) [1]: 99 % P1075
 | O=C1COCC2=C1C(c1ccc(Cl)c([N+](=O)[O-])c1)C1=C(CCS1(=O)=O)N2 (stereo not shown) [Example 17, 9-(4-chloro-3-nitrophenyl)-2,3,5,9-tetrahydro-4H-pyrano[3,4-b]thieno[2,3-e]pyridin-8(7H)-one 1,1-dioxide] | 93 | 4.2 | 
 | O=C1COCC2=C1C(c1ccc(F)c(Br)c1)C1=C(CCCS1(=O)=O)N2 (stereo not shown) [Example 21, 10-(3-bromo-4-fluorophenyl)-3,4,6,10-tetrahadro-2H,5H-pyrano[3,4-b]thioyrano[2,3-e]pyridin-9(8H)-one 1,1-dioxide] |  | 66 | Maximal Response (% P1075) [1]: 79 % P1075
40 | O=C1CCC2=C1C(c1ccc(F)c(Br)c1)C1=C(COCC1=O)N2 (stereo not shown) [Example 23, 5-(3-bromo-4-fluorophenyl)-5,7,8,9-tetrahydrocyclopenta [b]pyrano[4,3-e]pyridine-4,6(1H,3H)-dione] | 82 |  | 
9.8 | O=C1COCC2=C1C(c1ccc(F)c(Br)c1)C1=C(COC1=O)N2 (stereo not shown) [Example 25, 9-(3-bromo-4-fluorophenyl)-5,9-dihydro-3H-furo [3,4-b]pyrano[4,3-e]pyridine-1,8(4H,7H)-dione] | 106 |  | 
13 | CN1CC2=C(C1=O)C(c1ccc(F)c(Br)c1)C1=C(COCC1=O)N2 (stereo not shown) [Example 26, 9-(3-bromo-4-fluorophenyl)-2-methyl-2,3,5,9-tetrahydropyrano[3,4-b]pyrrolo[3,4-e]pyridine-1,8(4H,7H)-dione] | 90 |  | 
 | O=C1COCC2=C1C(c1ccc(F)c(Cl)c1)C1=C(CCNC1=O)N2 (stereo not shown) [Example 44, 10-(3-chloro-4-fluorophenyl)-3,4,6,10-tetrahydro-2H-pyrano [3,4-b][1,6]naphthyridine-1,9(5H,8H)-dione] | 96 |  | 
200 | O=C1COCC2=C1C(c1ccc(Cl)c(Cl)c1)C1=C(CCNC1=O)N2 (stereo not shown) [Example 45, 10-(3,4-dichlorophenyl)-3,4,6,10-tetrahydro-2H-pyrano [3,4-b][1,6]naphthyridine-1,9(5H,8H)-dione] | 85 |  | 
340 | O=C1COCC2=C1C(c1ccc(Cl)c(C(F)(F)F)c1)C1=C(CCNC1=O)N2 (stereo not shown) [Example 46, 10-[4-chloro-3-(trifluoromethyl)phenyl]-3,4,6,10-tetrahydro-2H-pyrano[3,4-b][1,6]naphthyridine-1,9(5H,8H)-dione] | 83 |  | 
490 | O=C1COCC2=C1C(c1ccc(Cl)c([N+](=O)[O-])c1)C1=C(CCNC1=O)N2 (stereo not shown) [Example 47, 10-(4-chloro-3-nitrophenyl)-3,4,6,10-tetrahydro-2H-pyrano[3,4-b][1,6]naphthyridine-1,9(5H,8H)-dione] | 91 |  | 
84 | O=C1COCC2=C1C(c1ccc(Br)c(Br)c1)C1=C(CCNC1=O)N2 (stereo not shown) [Example 48, 10-(3,4-dibromophenyl)-3,4,6,10-tetrahydro-2H-pyrano[3,4-b][1,6]naphthyridine-1,9(5H,8H)-dione] | 91 |  | 
2300 | O=C1COCC2=C1C(c1csc([N+](=O)[O-])c1)C1=C(CCNC1=O)N2 (stereo not shown) [Example 49, 10-(5-nitro-3-thienyl)-3,4,6,10-tetrahydro-2H-pyrano [3,4-b][1,6]naphthyridine-1,9(5H,8H)-dione] | 85 |  | 
 | O=C1CCC2=C1C(c1ccc(F)c(Br)c1)C1=C(CSCC1=O)N2 (stereo not shown) [Example 51, 5-(3-bromo-4-fluorophenol)-5,7,8,9-tetrahydrocyclopenta [b]thiopyrano[4,3-e]pyridine-4,6(1H,3H)-dione] |  | 120 | Maximal Response (% P1075) [1]: 88 % P1075
 | O=C1COCC2=C1C(c1ccc(Cl)c(C(F)(F)F)c1)C1=C(COCC1=O)N2 [Example 56, 5-[4-chloro-3-(trifluoromethyl)phenyl]-5,10-dihydro-1H, 3H-dipyrano[3,4-b:4,3-e]pyridine-4,6(7H,9H)-dione] |  | 15 | Maximal Response (% P1075) [1]: 96 % P1075
 | O=C1COCC2=C1C(c1ccc(Br)c(Cl)c1)C1=C(COCC1=O)N2 [Example 60, 5-(4-bromo-3-chlorophenyl)-5,10-dihydro-1H,3H-dipyrano[3,4-b:4,3-e]pyridine-4,6(7H,9H)-dione] |  | 23 | Maximal Response (% P1075) [1]: 88 % P1075
 | O=C1COCC2=C1C(c1ccc(Cl)c(Br)c1)C1=C(COCC1=O)N2 [Example 61, 5-(3-bromo-4-chlorophenyl)-5,10-dihydro-1H,3H-dipyrano[3,4-b:4,3-e]pyridine-4,6(7H,9H)-dione] |  | 6.3 | Maximal Response (% P1075) [1]: 97 % P1075
 | O=C1COCC2=C1C(c1ccc(C(F)(F)F)c(I)c1)C1=C(COCC1=O)N2 [Example 62, 5-[3-iodo-4-(trifluoromethyl)phenyl]-5,10-dihydro-1H,3H-dipyrano[3,4-b:4,3-e]pyridine-4,6(7H,9H)-dione] |  | 58 | Maximal Response (% P1075) [1]: 77 % P1075
 | CCC(C)(C)N=C(NC#N)Nc1cccnc1 [Example P1075, reference compound] |  |  | stimulated twitch (Landrace Pig Bladder; control agonist, 10^−9 to 10^−5 M, dose dependent): completely eliminated the stimulated twitch
